In the supplement of paper PMC10883282:

Experiments:
Experiment in all cases: relative viability vs DMSO control (72 h) (fraction); higher = more viable cells
KHOS-NP = tested on: KHOS-NP
Procedure, shortened: (§1)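 Sarcoma cell lines were grown in 384-well plates seeded toward 80–90% confluence and exposed 24 h later to serially diluted compound. After 72 h at 37 °C and 5% CO2, with 0.1% DMSO vehicle and a 5 µM positive control on the plates, ATPLite was read. Relative viability, given as percent growth averaged over up to triplicate wells, was rescaled so that 1 is full and 0 is none.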

A204 = tested on: A204
Procedure, shortened: as §1

HS729 = tested on: HS729
Procedure, shortened: as §1

HT1080 = tested on: HT1080
Procedure, shortened: as §1

SW1353 = tested on: SW1353
Procedure, shortened: as §1

MES-SA = tested on: MES-SA
Procedure, shortened: as §1

G401 = tested on: G401
Procedure, shortened: as §1

SYO-1 = tested on: SYO-1
Procedure, shortened: as §1

SK-LMS-1 = tested on: SK-LMS-1
Procedure, shortened: as §1

SW872 = tested on: SW872
Procedure, shortened: as §1

SW684 = tested on: SW684
Procedure, shortened: as §1

VA-ES-BJ = tested on: VA-ES-BJ
Procedure, shortened: as §1

CC[C@@H]1CN(C(=O)NCC(F)(F)F)C[C@@H]1c1cnc2cnc3[nH]ccc3n12 [Upadacitinib]
Conditions	relative viability
A204, 0.00017 µM	1.05
A204, 0.00051 µM	1.1
A204, 0.00152 µM	1.1
A204, 0.00457 µM	1.07
A204, 0.01372 µM	1.05
A204, 0.04115 µM	1.05
A204, 0.1235 µM	1.07
A204, 0.3704 µM	1.03
A204, 1.111 µM	1.03
A204, 3.333 µM	0.945
A204, 10 µM	0.832
G401, 0.00017 µM	1.03
G401, 0.00051 µM	1.04
G401, 0.00152 µM	1
G401, 0.00457 µM	1.04
G401, 0.01372 µM	1.02
G401, 0.04115 µM	0.987
G401, 0.1235 µM	1.01
G401, 0.3704 µM	0.977
G401, 1.111 µM	0.953
G401, 3.333 µM	0.904
G401, 10 µM	0.842
HS729, 0.00017 µM	1.02
HS729, 0.00051 µM	0.954
HS729, 0.00152 µM	0.973
HS729, 0.00457 µM	0.97
HS729, 0.01372 µM	0.931
HS729, 0.04115 µM	0.946
HS729, 0.1235 µM	0.895
HS729, 0.3704 µM	0.837
HS729, 1.111 µM	0.834
HS729, 3.333 µM	0.805
HS729, 10 µM	0.761
HT1080, 0.00017 µM	1.06
HT1080, 0.00051 µM	1.06
HT1080, 0.00152 µM	1.08
HT1080, 0.00457 µM	1.05
HT1080, 0.01372 µM	1.07
HT1080, 0.04115 µM	1.06
HT1080, 0.1235 µM	1.05
HT1080, 0.3704 µM	1.062
HT1080, 1.111 µM	1.035
HT1080, 3.333 µM	1.01
HT1080, 10 µM	0.9733
KHOS-NP, 0.00017 µM	1.07
KHOS-NP, 0.00051 µM	1.09
KHOS-NP, 0.00152 µM	1.07
KHOS-NP, 0.00457 µM	1.08
KHOS-NP, 0.01372 µM	1.08
KHOS-NP, 0.04115 µM	1.088
KHOS-NP, 0.1235 µM	1.07
KHOS-NP, 0.3704 µM	1.06
KHOS-NP, 1.111 µM	1.03
KHOS-NP, 3.333 µM	0.965
KHOS-NP, 10 µM	0.912
MES-SA, 0.00017 µM	0.941
MES-SA, 0.00051 µM	0.949
MES-SA, 0.00152 µM	0.947
MES-SA, 0.00457 µM	0.939
MES-SA, 0.01372 µM	0.932
MES-SA, 0.04115 µM	0.92
MES-SA, 0.1235 µM	0.923
MES-SA, 0.3704 µM	0.936
MES-SA, 1.111 µM	0.885
MES-SA, 3.333 µM	0.873
MES-SA, 10 µM	0.812
SK-LMS-1, 0.00017 µM	1.06
SK-LMS-1, 0.00051 µM	1.05
SK-LMS-1, 0.00152 µM	1.07
SK-LMS-1, 0.00457 µM	1.07
SK-LMS-1, 0.01372 µM	1.09
SK-LMS-1, 0.04115 µM	1.08
SK-LMS-1, 0.1235 µM	1.056
SK-LMS-1, 0.3704 µM	1.05
SK-LMS-1, 1.111 µM	1.02
SK-LMS-1, 3.333 µM	0.979
SK-LMS-1, 10 µM	0.772
SW684, 0.00017 µM	1.1
SW684, 0.00051 µM	1.19
SW684, 0.00152 µM	1.18
SW684, 0.00457 µM	1.18
SW684, 0.01372 µM	1.17
SW684, 0.04115 µM	1.16
SW684, 0.1235 µM	1.18
SW684, 0.3704 µM	1.13
SW684, 1.111 µM	1.17
SW684, 3.333 µM	1.11
SW684, 10 µM	1.03
SW872, 0.00017 µM	1.07
SW872, 0.00051 µM	1.07
SW872, 0.00152 µM	1.07
SW872, 0.00457 µM	1.03
SW872, 0.01372 µM	1.03
SW872, 0.04115 µM	1.01
SW872, 0.1235 µM	1.01
SW872, 0.3704 µM	0.963
SW872, 1.111 µM	1
SW872, 3.333 µM	0.97
SW872, 10 µM	0.85
SW1353, 0.00017 µM	1.04
SW1353, 0.00051 µM	1.04
SW1353, 0.00152 µM	1.02
SW1353, 0.00457 µM	1.04
SW1353, 0.01372 µM	0.997
SW1353, 0.04115 µM	1.01
SW1353, 0.1235 µM	1.001
SW1353, 0.3704 µM	0.942
SW1353, 1.111 µM	0.937
SW1353, 3.333 µM	0.84
SW1353, 10 µM	0.686
SYO-1, 0.00017 µM	1.04
SYO-1, 0.00051 µM	1
SYO-1, 0.00152 µM	0.988
SYO-1, 0.00457 µM	0.978
SYO-1, 0.01372 µM	0.958
SYO-1, 0.04115 µM	0.934
SYO-1, 0.1235 µM	0.927
SYO-1, 0.3704 µM	0.894
SYO-1, 1.111 µM	0.826
SYO-1, 3.333 µM	0.764
SYO-1, 10 µM	0.592
VA-ES-BJ, 0.00017 µM	1.1
VA-ES-BJ, 0.00051 µM	1.05
VA-ES-BJ, 0.00152 µM	1.07
VA-ES-BJ, 0.00457 µM	1.04
VA-ES-BJ, 0.01372 µM	1.05
VA-ES-BJ, 0.04115 µM	1.06
VA-ES-BJ, 0.1235 µM	1.04
VA-ES-BJ, 0.3704 µM	1.037
VA-ES-BJ, 1.111 µM	1
VA-ES-BJ, 3.333 µM	1.03
VA-ES-BJ, 10 µM	0.995
